System: AChE
Assay: Cholinesterase activity of human ocular fluid (micro Ellman assay, acetylthiocholine substrate), inhibition by BW 284c51
Type: biochemical
Details: BW 284c51 1.5 μM, acetylthiocholine 1.0 mM, pH 7.0, 25° C.
Procedure: Cholinesterase activities were measured by a microversion of the method of Ellman et al, (1961) supra, using microtitre plates. Acetylthiocholine was used as substrate at a concentration of 1.0 mM, which is optimal for AChE, but suboptimal for BuChE. The assay was performed in 0.05M Na/K phosphate buffer, pH 7.0 at 25° C., containing 3 mM 5,5'-dithio-bis-(2-nitrobenzoate), in a total volume of 100 μL. The rate of hydrolysis of acetylthiocholine was monitored by measurement of absorbances at 410 nm, using a Titertek multiscan microplate reader. A calibration curve was constructed using purified electric eel AChE (Sigma). AChE and BuChE activities were distinguished by use of the specific AChE inhibitor 1,5-bis-(-4-allyldimethylammoniumphenyl)pentan-3-one dibromide (BW 284c51) (1.5 μM).

C=CC[N+](C)(C)c1ccc(CCC(=O)CCc2ccc([N+](C)(C)CC=C)cc2)cc1 [BW 284c51, 1,5-bis-(-4-allyldimethylammoniumphenyl)pentan-3-one dibromide]
inhibition of cholinesterase activity of ocular fluid: Most of this activity was inhibited
